Results published in patent US8828992B2, “Substituted azole derivatives, pharmaceutical composition containing the derivatives, and method for treating Parkinson's disease using the same” (priority 2009, dated 2014).
Where two headings read alike, the source gives them in different places.

Tests used:
[1] = test system: dopamine (DA) in the striatum of a MPTP-treated mouse; test: Combined administration with Levodopa group: dopamine in the striatum of MPTP-treated mouse (HPLC); assay type: in vivo; settings: compound 1 mg/kg PO co-administered with Levodopa group (Levodopa 50 mg/kg + Benzerazide 25 mg/kg IP); for Concentration of dopamine compared to a control group %, 1 hr: 1 hr after Levodopa; for Concentration of dopamine compared to a control group %, 3 hr: 3 hr after Levodopa
Experimental: MPTP (20 mg/kg, free base; Sigma, St. louis, Mo.) was administered to an 8 week old (20-25 g) male C57BL/6 test mouse intraperitoneally at the interval of 2 hours to construct a model.
In order to observe the effects of combined administration of a compound of the present invention and Levodopa, the compound of the present invention was dissolved in a solution containing 0.02 ml of dimethylsulfoxide (DMSO), 0.02 ml of Cremophor, 0.08 ml of polyethyleneglycol (PEG), and 0.08 ml of physiological saline. The resulting solution was orally administered at doses of 1 mg/kg one week after the MPTP treatment, and a Levodopa group containing Levodopa at 50 mg/kg and Benzerazide at 25 mg/kg was intraperitoneally administered 1 hour later.
A single administration of the Levodopa group in the following Table 4 indicates values resulting from a MPTP (toxin) treatment followed by an administration of the Levodopa group compared to the treatment results of a Levodopa single administration group of Levodopa and Benzerazide.
At 1 hour and 3 hours after administration of Levodopa, the animals were sacrificed by cervical vertebra dislocation and the brain tissues were immediately isolated from the animals. 0.5 me of iced solution for HPLC analysis (0.1 M perchloric acid and 0.1 mM EDTA) was added to a striatum obtained from the isolated brain tissues, and an ultrasonic grinder was used to prepare a tissue homogenate. The tissue homogenate was centrifuged at 12,000 rpm for 15 minutes, and its supernatant was filtered through nitrocellulose membrane filter (0.2 um, Millipore). For HPLC analysis, uBondapak™ C18 column (4.6×150 mm, particle size 10 μm: Shisheido, Japan) was used, the flow rate of the mobile phase (0.07 M monobasic sodium phosphate, 1 mM sodium octasulfonic acid, 0.1 uM EDTA, 5% acetonitrile, pH 3.2) was maintained at 0.5 me/min, and the electrode potential of the electrochemical detector (CouloChem III, ESA, Japan) was set at 350 mV.

[2] = test system: dopamine (DA) in the striata of MPTP-treated mice; test: Levels of dopamine in the striata of MPTP-treated mice (HPLC); assay type: in vivo; settings: Mus musculus, po, 168 h, 10 mpk, 7 days after MPTP, read-out: Levels of dopamine (DA) in the striata, compared to a control group %
Experimental: (§1) A. MPTP (1-methyl-4-phenyl-1,2,3,6-tetrahydropyridine) and drug treatment MPTP (20 mg/kg, free base; Sigma, St. louis, Mo.) was administered to an 8 week old (20-25 g) male C57BL/6 test mouse intraperitoneally three times a day at the interval of 2 hours to construct a model (Breidert et al., 2002; Lichuan Yang, Shuei Sugama, Jason W. Chirichigno, Jason Gregorio, Stefan Lorenzl, Dong H. Shin, Susan E. Browne, Yoshinori Shimizu, Tong H. Joh, M. Flint Beal, l and David S. Alber. (2003) Minocycline Enhances MPTP Toxicity to Dopaminergic Neurons. J Neurosci Res. 74:278-285). In order to observe the protective effects of the compound as a candidate drug, the compound was dissolved in a solution containing 10% dimethylsulfoxide (DMSO), 10% Cremophor, and 40% polyethyleneglycol (PEG), […] treatment. Rasagiline as a control drug was also dissolved in the same solution, and the resulting solution was administered at the same doses in the same manner as above. A control group (Sham) in which MPTP was not administered was constructed by intraperitoneally administering saline solution to the group instead of MPTP in the same manner as above and orally administering the same solution 1 hour before and after PBS treatment.
The changes of contents of dopamine and dopamine metabolites in the striatum in accordance with administrations of MPTP and the drug were measured by high performance liquid chromatography (HPLC). At 7 days after administration of the drug, the animal was sacrificed by cervical vertebra dislocation and the brain tissues were immediately isolated from the animal. 0.5 ml of iced solution for HPLC analysis (0.1 M perchloric acid and 0.1 mM EDTA) was added to a striatum obtained from the isolated brain tissues, and an ultrasonic grinder was used to prepare a tissue homogenate. The tissue homogenate was centrifuged at 12,000 rpm for 15 minutes, and its supernatant was filtered through nitrocellulose membrane filter (0.2 um, Millipore). For HPLC analysis, uBondapak™ C18 column (4.6×150 mm, particle size 10 μm: Shisheido, Japan) was used, the flow rate of the mobile phase (0.07 M monobasic sodium phosphate), 1 mM sodium octasulfonic acid, 0.1 uM EDTA, 5% acetonitrile, pH 3.2) was maintained at 0.7 ml/min, and the electrode potential of the electrochemical detector (ICA-5000, Japan) was set at 700 mV.

[3] = biological target: T1, Monoamineoxidase B type human-derived enzyme (Homo sapiens, UniProt P27338); test: Inhibitory effects on the activity of MAO-B (Amplex Red fluorescence, benzylamine substrate); assay type: biochemical; settings: read-out: Inhibitory effects (%) on the activity of MAO-B
T1 sequence (P27338 1-520): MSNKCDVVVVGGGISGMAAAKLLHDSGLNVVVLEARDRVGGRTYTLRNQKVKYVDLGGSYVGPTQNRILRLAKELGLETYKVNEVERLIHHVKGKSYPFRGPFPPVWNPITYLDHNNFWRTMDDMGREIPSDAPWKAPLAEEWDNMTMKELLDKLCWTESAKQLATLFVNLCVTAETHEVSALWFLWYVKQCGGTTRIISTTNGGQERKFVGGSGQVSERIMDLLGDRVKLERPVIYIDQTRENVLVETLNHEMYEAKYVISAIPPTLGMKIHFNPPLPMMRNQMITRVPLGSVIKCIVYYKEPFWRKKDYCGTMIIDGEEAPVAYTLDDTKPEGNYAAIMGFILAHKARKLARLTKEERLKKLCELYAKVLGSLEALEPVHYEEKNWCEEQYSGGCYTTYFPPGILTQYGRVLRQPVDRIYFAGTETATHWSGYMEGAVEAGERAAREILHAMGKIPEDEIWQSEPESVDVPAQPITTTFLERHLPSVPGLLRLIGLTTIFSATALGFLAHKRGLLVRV
How it was run: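 Human MAO-B, diluted 1:200 in 0.05 M sodium phosphate pH 7.4, was pre-incubated with compound for 30 min. It was then mixed 1:1 with working buffer holding 400 μM Amplex Red, 2 U/ml HRP and 2 mM benzylamine (working-buffer levels). Fluorescence (Ex 563/Em 587 nm) was read over 30 min.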

[4] = test system: MPTP-induced mouse model; test: Tail suspension test in MPTP-induced mouse model of Parkinson's disease; assay type: in vivo; settings: Mus musculus, 168 h; administration concentration 10 (10 mg/kg), oral, 7 days after MPTP; % of control group (Sham); read-out: Mobility (%)
Experimental: as §1
A tail suspension test was performed in order to measure the induction degree of behavioral dysfunctions in accordance with administration of MPTP and a drug. At 7 days after administration of the drug, a round stainless steel rod (width: 1 cm) was affixed to a cage (width: 16 cm, height: 40 cm) 35 cm above from the surface shielded by black wooden structures in the left and right sides to perform experiments. The time for which the animal moved for a total period of 6 minutes was measured in seconds to evaluate the drug action.
Mobility refers to an expression of the measurement of the time for which the animal moved with its tail hung high as a percentage compared to the measurement of a control group.

Row | Structure (SMILES) | Concentration of dopamine compared to a control group %, 1 hr [1] | Concentration of dopamine compared to a control group %, 3 hr [1] | response vs control in vivo at 10 mg/kg [2] | inhibition at 0.01 µM [3] | response vs control in vivo at 10 mg/kg [4] | inhibition at 0.01 µM ([3]; treatment concentration 10 nM)
1 | NC(=O)OCc1cc(-c2ccc(OCc3ccccc3)cc2)no1 [Example 1, carbamic acid 3-(4-benzyloxy-phenyl)-isoxazole-5-ylmethyl ester] | 129.5% | 90.8% | 112% | 96.6% | 113% | –
2 | NC(=O)OCc1cc(-c2ccc(OCc3ccccc3)c(Br)c2)no1 [Example 6, carbamic acid 3-(4-benzyloxy-3-bromo-phenyl)-isoxazol-5-ylmethyl ester] | 220.87% | 59.8% | 112% | – | 82.9% | 90.7%
3 | NC(=O)OCc1cc(-c2ccc(OCc3cccc(F)c3)cc2)no1 [Example 12, carbamic acid 3-[4-(3-fluoro-benzyloxy)-phenyl]-isoxazol-5-ylmethyl ester] | – | – | 78.8% | – | 85.3% | 94.1%
4 | NC(=O)OCc1cc(-c2ccc(OCc3ccc(C=NO)cc3)cc2)no1 [Example 37, carbamic acid 3-{4-[4-(hydroxyimino-methyl)-benzyloxy]-phenyl}-isoxazol-5-ylmethyl ester] | – | – | 79.2% | – | 77.5% | 92.3%
5 | NC(=O)OCc1cc(-c2ccc(OCc3cccc(C=NO)c3)cc2)no1 [Example 38, carbamic acid 3-{4-[3-(hydroxyimino-methyl)-benzyloxy]-phenyl}-isoxazol-5-ylmethyl ester] | – | – | 52.9% | – | 73% | 91.7%
6 | CCCCCCOc1ccc(-c2cc(COC(N)=O)on2)cc1 [Example 45, carbamic acid 3-(4-hexyloxy-phenyl)-isoxazol-5-ylmethyl ester] | – | – | 41.1% | 87.6% | 114% | –
7 | NC(=O)OCc1cc(-c2ccc(OCc3ccc(Cl)s3)cc2)no1 [Example 62, Carbamic acid 3-[4-(5-chloro-thiophen-2-ylmethoxy)-phenyl]-isoxazol-5-ylmethyl ester] | 204.8% | 65.4% | 99.1% | 98.6% | 97.3% | –
8 | NC(=O)OCc1cc(-c2ccc(OCc3ccccn3)cc2)no1 [Example 65, Carbamic acid 3-[4-(pyridin-2-ylmethoxy)-phenyl]-isoxazol-5-ylmethyl ester] | – | – | 74.9% | 89.9% | 94.1% | –
9 | NC(=O)OCc1cc(-c2ccc(OCc3ccncc3)cc2)no1 [Example 67, Carbamic acid 3-[4-(pyridin-4-ylmethoxy)-phenyl]-isoxazol-5-ylmethyl ester] | – | – | 80.7% | 94.2% | 88.9% | –
10 | NC(=O)OCc1cc(-c2ccc(OCc3c(Cl)cncc3Cl)cc2)no1 [Example 69, Carbamic acid 3-[4-(3,5-dichloro-pyridin-4-ylmethoxy)-phenyl]-isoxazol-5-ylmethyl ester] | 205.2% | 200.4% | 100% | – | 97.4% | 83.6%
11 | NC(=O)OCc1cc(-c2ccc(OCn3nnc4ccccc43)cc2)no1 [Example 71, Carbamic acid 3-[4-(benzotriazol-1-ylmethoxy)-phenyl]-isoxazol-5-ylmethyl ester] | – | – | 41.1% | – | – | 56%
12 | CNC(=O)OCc1cc(-c2ccc(OCc3ccccc3)cc2)no1 [Example 121, methyl-carbamic acid 3-(4-benzyloxy-phenyl)-isoxazol-5-ylmethyl ester] | 144.6% | 89.2% | 97.9% | – | 91.2% | 82.8%
13 | Cc1cn(Cc2cc(-c3ccc(OCc4ccccc4)cc3)no2)cn1 [Example 141, 3-(4-benzyloxy-phenyl)-5-(4-methyl-imidazol-1-ylmethyl)-isoxazole] | – | – | 51.2% | – | 94.6% | 92.2%
14 | Fc1cccc(F)c1COc1ccc(-c2cc(Cn3ccnc3)on2)cc1 [Example 143, 3-[4-(2,6-difluoro-benzyloxy)-phenyl]-5-imidazol-1-ylmethyl-isoxazole] | – | – | 46.1% | – | 98.9% | 98.1%
